Laboratory results from US7867979B2, “Drug composition for treating 2 type diabetes and diabetic chronicity complications” (Hainan Deze Drug Research Co., Ltd., priority 2006, dated 2011).

What was measured:
Assay type in all cases: in vivo, Goto-Kakizaki rats (GK)
diabetic GK rats = test: Blood glucose and lipid in GK rats; settings: oral daily 12 weeks; for GLU / Lipid TC / Lipid TG: GK rats, high fat diet
Excerpt: The GK (Goto-Kakizaki) rat is the spontaneous model of diabetes, the pathogenesis of GK rat is very similar to the pathogenesis of type 2 diabetes. After diabetes attack, hyperglycemia and insulin secretion weakened emerge rapidly, the latter diseases may be complicated by retinopathy, micro-vascular disease, neuropathy, nephropathy in GK rat. The GK rats have been widely used in type 2 diabetes study, so we choose GK rat as the animal model of the following experiment. […] Then they can be mixed or diluted in accordance with the dose and the ratio. 1.3 Goto-Kakizaki rats (GK) (4 months age, ♀♂) and Wistar rats (SPF level, ♀♂) were purchased from Shanghai SLAC laboratory animal Co., Ltd. In addition to the normal rats, the other rats were fed with high fat diet (20% protein and 3.5% cholesterol). After the rats was feeding adaptation for one week, The GK rats which the blood glucose level was more than 11.1 mmol/L were selected, and then divided into the following groups random: GK rats control group (n=10); mangiferin groups (10, 30, 200 mg/kg, each group 10 rats); berberine groups (10, 20, 150 mg/kg, each group 10 rats); composition group 1[[mangiferin (10 mg/kg)+berberine (10 mg/kg)], 10 rats]; composition group 2[[mangiferin (200 mg/kg)+berberine (150 mg/kg)], 10 rats]. Wistar rats are normal control group (10 rats). GK rats control group and Wistar rats group were given saline. The other groups were given test drugs. Test samples were administrated orally at the same time every day for 12 weeks. 3.1 Blood Glucose and lipid: The blood specimens were taken at the end of the test. Plasma glucose (GLU), triglycerides (TG), total cholesterol (TC) were determined by HITACHI7080 automatic biochemistry analyzer. […] The results have been calculated as mean±SD ( x±SD) and the comparisons of the data have been done by t-test. […] Mangiferin and berberine are prepared in accordance with the method of preparation of example 1 and 2. Then they can be mixed in accordance with the dose and the ratio such as table 3. 1.2 Animal: Goto-Kakizaki rats (GK) (4 months age, ♀♂) and Wistar rats (SPF level, ♀♂) were purchased from Shanghai SLAC laboratory animal Co., Ltd. In addition to the normal rats, the other rats were fed with high fat diet (20% protein and 3.5% cholesterol). After the rats was feeding adaptation for one week, GK rats that the blood glucose level of the GK rats was more than 11.1 mmol/L were selected, and then random divided into the following groups as follows (Table 3): There are ten rats in every group. GK rats control group and wistar rats group were given saline. The other groups were given test drugs. Test samples were administrated orally at the same time every day for 12 weeks. The measurements are as same as the above experiment.

aldose reductase (AR) = biological target: T1, aldose reductase (AR) (Rattus norvegicus, UniProt P07943); test: Activity of aldose reductase (AR) of lens in GK rats; settings: oral daily 12 weeks, specific activity, in U/mg protein; for AR activity of lens NADH (0.1 mmol/L): NADH 0.1 mmol/L system; for AR activity of lens NADPH (0.1 mmol/L): NADPH 0.1 mmol/L system
T1 construct: from tissue; host or cells: lens of GK (Goto-Kakizaki) and Wistar rats
Experimental: GK rats control group (n=10); mangiferin groups (10, 30, 200 mg/kg, each group 10 rats); berberine groups (10, 20, 150 mg/kg, each group 10 rats); composition group 1[[mangiferin (10 mg/kg)+berberine (10 mg/kg)], 10 rats]; composition group 2[[mangiferin (200 mg/kg)+berberine (150 mg/kg)], 10 rats]. Wistar rats are normal control group (10 rats). GK rats control group and Wistar rats group were given saline. The other groups were given test drugs. Test samples were administrated orally at the same time every day for 12 weeks. […] At the End of the experiment, the left side lens of rats was taken, then these lenses were added into glycerol and put into refrigerator (−80° C.□) to preserve to determine AR activity. The determination method of AR activity refer to Maragoudakis's method and change slightly, that is: the activity of enzyme is indicated by the record of the absorbance of NADPH in 340 nm decline IOU. […] The second reaction system is 0.1 mmol/L NADH instead of NADPH, the rest of the reagent is same as one of the first response system. The activity of enzyme and the protein content in tissue homogenate are determined at the same time. a unit enzyme activity is indicated by the quantity of the enzyme that produce 1 μmol NADP^+ (or NDA^+) in one minute. […] The results have been calculated as mean±SD ( x±SD) and the comparisons of the data have been done by t-test. There are ten rats in every group. GK rats control group and wistar rats group were given saline. The other groups were given test drugs. Test samples were administrated orally at the same time every day for 12 weeks. The measurements are as same as the above experiment.

Propyl dialdehyde (MDA) = Propyl dialdehyde (MDA) in kidney tissue homogenate of GK rats; settings: oral daily 12 weeks
Experimental: GK rats control group (n=10); mangiferin groups (10, 30, 200 mg/kg, each group 10 rats); berberine groups (10, 20, 150 mg/kg, each group 10 rats); composition group 1[[mangiferin (10 mg/kg)+berberine (10 mg/kg)], 10 rats]; composition group 2[[mangiferin (200 mg/kg)+berberine (150 mg/kg)], 10 rats]. Wistar rats are normal control group (10 rats). GK rats control group and Wistar rats group were given saline. The other groups were given test drugs. Test samples were administrated orally at the same time every day for 12 weeks. 3.3.1 Preparation of tissue homogenate: Rats were killed by femoral artery bloodletting after administration of the rats for 12-weeks. Kidney tissue of the rats were taken, the blood of kidney tissue were washed with cooling saline (4° C.), then the remnant water was absorbed with filter paper, the kidney tissue was weighed. Per gram kidney tissue was added into 10 ml saline, which was put in homogenized machine (10,000 r/min, 10 seconds, 3rd), 10% tissue homogenate was prepared, the tissue homogenate was centrifuged (4000 r/min) for 10 minutes to get supernatant, the supernatant was saved in −20° C. for determination. 3.3.2.2 Propyl dialdehyde (MDA): MDA is determined by TBA, the test box was bought from Nanjing Jiancheng Bioengineering Research Institute. […] The results have been calculated as mean±SD ( x±SD) and the comparisons of the data have been done by t-test. There are ten rats in every group. GK rats control group and wistar rats group were given saline. The other groups were given test drugs. Test samples were administrated orally at the same time every day for 12 weeks. The measurements are as same as the above experiment.

[1] = 30 mg/kg mangiferin, 20 mg/kg berberine

For COc1ccc2cc3[n+](cc2c1OC)CCc1cc2c(cc1-3)OCO2 [Berberine], the “Improvement of GLU, TC, TG, AR, MDA, SOD in diabetic GK rats” value (from here on “Improvement of GLU, TC, TG, AR, MDA, SOD”) (diabetic GK rats; 10 mg/kg) was “do not significantly improve”, the “Improvement of GLU, TC, TG, AR, MDA, SOD” value (diabetic GK rats; [1]) was “improves” and the GLU (diabetic GK rats; 10 mg/kg) was 21.24 ± 3.13 mmol/L. For the same molecule, the “Lipid TC” value (diabetic GK rats; 10 mg/kg) was 4.53 ± 1.28 mmol/L, the “Lipid TG” value (diabetic GK rats; 10 mg/kg) was 3.49 ± 0.68 mmol/L and the GLU (diabetic GK rats; 20 mg/kg) was 12.29 ± 2.76 mmol/L. The “Lipid TC” value (diabetic GK rats; 20 mg/kg) was 3.27 ± 0.24 mmol/L, the “Lipid TG” value (diabetic GK rats; 20 mg/kg) was 2.79 ± 0.24 mmol/L and the GLU (diabetic GK rats; 150 mg/kg) was 9.11 ± 2.08 mmol/L. For the same molecule, the “Lipid TC” value (diabetic GK rats; 150 mg/kg) was 3.01 ± 0.28 mmol/L, the “Lipid TG” value (diabetic GK rats; 150 mg/kg) was 1.80 ± 0.19 mmol/L and the “AR activity of lens NADH (0.1 mmol/L)” value (aldose reductase (AR); 10 mg/kg) was 2.98 ± 0.60. The “AR activity of lens NADPH (0.1 mmol/L)” value (aldose reductase (AR); 10 mg/kg) was 5.64 ± 2.19, the “AR activity of lens NADH (0.1 mmol/L)” value (aldose reductase (AR); 20 mg/kg) was 1.32 ± 0.37 and the “AR activity of lens NADPH (0.1 mmol/L)” value (aldose reductase (AR); 20 mg/kg) was 2.28 ± 0.51. The “AR activity of lens NADH (0.1 mmol/L)” value (aldose reductase (AR); 150 mg/kg) was 0.94 ± 0.45, the “AR activity of lens NADPH (0.1 mmol/L)” value (aldose reductase (AR); 150 mg/kg) was 1.87 ± 0.51 and the “Measurements about oxidation MDA” value (Propyl dialdehyde (MDA); 10 mg/kg) was 4.39 ± 0.90 nmol/mg pro. The “Measurements about oxidation MDA” value (Propyl dialdehyde (MDA); 20 mg/kg) was 3.51 ± 0.46 nmol/mg pro and the “Measurements about oxidation MDA” value (Propyl dialdehyde (MDA); 150 mg/kg) was 2.76 ± 0.40 nmol/mg pro.

In the case of O=c1c2cc(O)c(O)cc2oc2cc(O)c([C@@H]3O[C@H](CO)[C@@H](O)[C@H](O)[C@H]3O)c(O)c12 [Mangiferin], the “Improvement of GLU, TC, TG, AR, MDA, SOD” value (diabetic GK rats; 10 mg/kg) is reported as “do not significantly improve”, the “Improvement of GLU, TC, TG, AR, MDA, SOD” value (diabetic GK rats; [1]) is reported as “improves” and the GLU (diabetic GK rats; 10 mg/kg) is reported as 20.75 ± 3.39 mmol/L. For the same molecule, the “Lipid TC” value (diabetic GK rats; 10 mg/kg) was 4.48 ± 1.53 mmol/L, the “Lipid TG” value (diabetic GK rats; 10 mg/kg) was 3.62 ± 0.41 mmol/L and the GLU (diabetic GK rats; 30 mg/kg) was 13.05 ± 2.23 mmol/L. For the same molecule, the “Lipid TC” value (diabetic GK rats; 30 mg/kg) was 3.16 ± 0.32 mmol/L, the “Lipid TG” value (diabetic GK rats; 30 mg/kg) was 2.82 ± 0.22 mmol/L and the GLU (diabetic GK rats; 200 mg/kg) was 9.05 ± 2.04 mmol/L. The “Lipid TC” value (diabetic GK rats; 200 mg/kg) was 3.06 ± 0.29 mmol/L, the “Lipid TG” value (diabetic GK rats; 200 mg/kg) was 1.82 ± 0.32 mmol/L and the “AR activity of lens NADH (0.1 mmol/L)” value (aldose reductase (AR); 10 mg/kg) was 2.89 ± 0.69. For the same molecule, the “AR activity of lens NADPH (0.1 mmol/L)” value (aldose reductase (AR); 10 mg/kg) was 5.36 ± 2.17, the “AR activity of lens NADH (0.1 mmol/L)” value (aldose reductase (AR); 30 mg/kg) was 1.64 ± 0.42 and the “AR activity of lens NADPH (0.1 mmol/L)” value (aldose reductase (AR); 30 mg/kg) was 3.05 ± 0.59. For the same molecule, the “AR activity of lens NADH (0.1 mmol/L)” value (aldose reductase (AR); 200 mg/kg) was 0.94 ± 0.45, the “AR activity of lens NADPH (0.1 mmol/L)” value (aldose reductase (AR); 200 mg/kg) was 1.87 ± 0.51 and the “Measurements about oxidation MDA” value (Propyl dialdehyde (MDA); 10 mg/kg) was 4.41 ± 0.87 nmol/mg pro. For the same molecule, the “Measurements about oxidation MDA” value (Propyl dialdehyde (MDA); 30 mg/kg) was 3.48 ± 0.47 nmol/mg pro and the “Measurements about oxidation MDA” value (Propyl dialdehyde (MDA); 200 mg/kg) was 2.75 ± 0.48 nmol/mg pro.
